Laboratory results reported in PubChem BioAssay (NCI).
Values joined by “and” are separate entries in the source; they are usually repeats but may differ in a detail not shown here. Identical values can stand only once.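 A five-concentration, 48-hour dose response in 96-well plates underlies each endpoint, interpolated linearly between surrounding concentrations. The concentration for 50% growth inhibition is given as GI50. TGI is the concentration that stops growth completely.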 Where a SMILES comes first, the peptide text is derived from it. Side-chain parts run from the residue outwards. [ ]: non-standard residue; d: D form. The star is where a group is joined. X28 = COC1=CC(=O)N(C(=O)[C@@H](O*)C(C)C)[C@H]1Cc1ccccc1; NMeL = CN[C@@H](CC(C)C)C(=O)O; Cbz = O=C(OCc1ccccc1)*; Boc = CC(C)(C)OC(=O)*

Experiments:
Assay in all cases: inhibition of tumour cell growth, NCI panel, 48 h
[1] = test system: SF-268 CNS
[2] = test system: MDA-MB-231 breast
[3] = test system: MDA-N
[4] = test system: HCT-116 colon
[5] = test system: LOX IMVI melanoma
[6] = test system: HS 578T breast
[7] = test system: CAKI-1 renal
[8] = test system: CCRF-CEM leukemia
[9] = test system: OVCAR-5 ovarian
[10] = test system: NCI/ADR-RES ovarian
[11] = test system: NCI-H226 lung
[12] = test system: SNB-19 CNS
[13] = test system: KM12 colon
[14] = test system: PC-3 prostate
[15] = test system: SR leukemia
[16] = test system: A498 renal

SMILES	TGI [1] [µM]	TGI [2] [µM]	TGI [3]	TGI [4] [µM]	TGI [5] [µM]	TGI [6] [µM]	TGI [7] [µM]	TGI [8] [µM]	TGI [9] [µM]	TGI [10] [µM]	TGI [11] [µM]	TGI [12] [µM]	TGI [13]	TGI [14] [µM]	TGI [15] [µM]	TGI [16] [µM]	GI50 [1]	GI50 [8]
COc1ccc2c(c1)-c1c(c3ccccc3n1CCN1CCOCC1)CC2	76.9	90.9	> 100 µM	76.8	34.5	32.3	81.9	85.8	> 100	46	26.3	71.5	26.7 µM	45.3	53.3			
COC1=CC(=O)N(C(=O)[C@@H](OC(=O)[C@@H]2CCCN2C(=O)[C@@H]2CCCN2C(=O)[C@H](CC(C)C)N(C)C(=O)[C@@H](NC(=O)[C@@H](NC(=O)OCc2ccccc2)C(C)C)C(C)C)C(C)C)[C@H]1Cc1ccccc1 (Cbz-VV[NMeL]PP-X28)	> 100	61.9	> 100 µM	> 100	> 100	> 100	> 100	> 100	> 100	> 100	> 100	> 100	> 100 µM	76.8		56.1		
CC(C)CC(NC(=O)OCc1ccccc1)C(=O)NCCCCC(NC(=O)C(CCCCNC(=O)C(CC(C)C)NC(=O)OCc1ccccc1)NC(=O)C(CCCCNC(=O)C(CC(C)C)NC(=O)OCc1ccccc1)NC(=O)C(CCCCNC(=O)C(CC(C)C)NC(=O)OCc1ccccc1)NC(=O)OC(C)(C)C)C(=O)O (stereo not drawn) (Boc-K([Leu-Cbz])K([Leu-Cbz])K([Leu-Cbz])K([Leu-Cbz])-OH; configuration not given here)	> 25	> 25	> 25 µM	> 25	> 25		> 25	> 25	> 25		> 25	> 25		> 25	> 25	> 25		
COc1ccc(-c2c(C(C)=O)c(-c3ccccc3)n(C3OC(COC(C)=O)C(OC(C)=O)C(OC(C)=O)C3OC(C)=O)c(=S)c2C#N)cc1O (stereo not drawn)	> 100		81.5 µM and > 100 µM	> 100	> 100	> 100	> 100	> 100	> 100	> 100		> 100	56.6 µM and > 100 µM	> 100	> 100	> 100	32.6 µM and 76.2 µM	23.6 µM and 70.2 µM
OC(C1CCCC1=N/N=C1/CCCC1C(O)(C(F)(F)Cl)C(F)(F)Cl)(C(F)(F)Cl)C(F)(F)Cl (stereo not drawn)	> 10	> 10	> 10 µM	> 10	> 10	> 10	> 10	> 10	> 10	> 10	> 10	> 10	> 10 µM	> 10		> 10		
CC(=O)O[C@@H]1CC2[C@@H](CCC3Cc4nc5c(nc4C[C@@]32C)CC2CC[C@@H]3C(CC[C@@]4(C)C3CC[C@@H]4C(C)CCCC(C)C)[C@@]2(C)C5)C2C[C@@H]3OC4(CCC(C)CO4)C(C)[C@@H]3[C@]21C (stereo partly drawn)	> 100	> 100	> 100 µM	> 100		96.4		> 100	> 100	> 100	87.1	> 100	> 100 µM	> 100	> 100			
CCOC(=O)/C(=C\NC#N)c1nc2ccccc2[nH]1	> 100		> 100 µM	> 100	> 100		> 100		> 100	> 100		> 100	> 100 µM		> 100	> 100		
